Where two headings read alike, the source gives them in different places.
Experiments:
fungal infection = test: Antifungal activity in in vivo tests in mice; design: species or system mouse; conditions: for antifungal activity in in vivo tests in mice versus existing antifungal agents: versus itraconazole, fluconazole and azoles of US 5,039,676 and WO 93/09114
Procedure: (§1) The in vitro anti-fungal activities of the compounds of the formulas II, III and IV against forty-one species of Candida, thirty species of Aspergillus and nine species of Cryptococcus are summarized in Table 5. […] This Aspergillus pulmonary infection model in mice was performed in accordance with the procedures of David Loebenberg et al. entitled "In vitro and in vivo activity of Sch 42427, the active enantiomer of the antifungal agent Sch 39304" published in Antimicrobial Agents and Chemotherapy (1992), Vol. 36, pp. 498-501.

Candida species = test: In vitro antifungal activity against Candida species; type: cell-based
Procedure: as §1
(§2) In Vitro Antifungal Activity(mcg/mL)
(§3) ^3 In vitro activity measured in accordance with procedures for NCCLS

Cryptococcus neoformans = test: In vitro antifungal activity against Cryptococcus neoformans; type: cell-based
Procedure: as §1, §2, §3

Aspergillus species = test: In vitro antifungal activity against Aspergillus species; type: cell-based; conditions: Aspergillus species (n = 30); Espinel-Ingroff's methodology
Procedure: as §1, §2
^2 In vitro activity against Aspergillus measured in accordance with
EspinelIngroff's Methodology

[1] = Plasma pharmacokinetics of formula IV in mice after intravenous di-NMG salt; type: in vivo, mouse (male Charles River); design: AUC (of formula IV), time zero to 24 hrs: unit not given here; conditions: for AUC (of formula IV), time zero to 24 hrs: Table 3, mouse plasma, IV 20 mg/kg formula IV equivalent of di-NMG salt
Procedure: Concentrations of the compound of formula IV in pooled mouse^1
plasma (2 mice/pool) following intravenous administration of a 20
mg/kg of the compound of formula IV dose equivalent of the di-NMG
salt of the compound of this invention represented by the formula II in
^1 Male Charles River mice having an average body weight of 18-20 g
mg/kg of compound of formula IV dose equivalent of the di-NMG
salt of the compound of the prior art represented by formula V
PHARMACOKINETIC ("PK") PARAMETERS OF THE
COMPOUND OF FORMULA IV IN MOUSE^1 PLASMA
FOLLOWING INTRAVENOUS ADMINISTRATION OF 20 MG/KG
OF COMPOUND OF FORMULA IV DOSE EQUIVALENT OF THE
DI-NMG SALTS OF THE COMPOUNDS OF FORMULAS II AND V
IN STERILE WATER TO MICE.

[2] = test system: Candida, Aspergillus and Cryptococcus; test: In vitro antifungal activity, comparison of geometric mean MICs; type: cell-based; conditions: comparison among II, III and IV
Procedure: as §1

[3] = Pharmacokinetic studies in human tissues and serum (metabolism); type: in vitro ADME
Aspergillus fumigatus = test: Aspergillus pulmonary infection model in mice; type: in vivo, mouse; Aspergillus fumigatus; conditions: 10 mg/kg
Procedure: as §1

Candida albicans = test: Mice with a systemic Candida albicans infection; type: in vivo, mouse; Candida albicans; conditions: 10 mg/kg
[4] = In vivo hydrolysis of prodrug; conditions: II to III; III to IV
Excerpt: The compound of formula II hydrolyzes in vivo to the compound of formula III; III then hydrolyzes in vivo to the compound of formula IV.

Water solubility = type: physicochemical
[5] = read-out: G mean MICs (geometric mean MIC)

SMILES | antifungal activity in in vivo tests in mice versus existing antifungal agents (fungal infection) | MIC (Candida species; [5]) | MIC (Candida species; read-out: MIC Range) | MIC (Cryptococcus neoformans; [5]) | MIC (Cryptococcus neoformans; read-out: MIC Range) | MIC (Aspergillus species) | AUC (of formula IV), time zero to 24 hrs [1] | site of hydrolysis in vivo [4] | further results
CC[C@@H]([C@H](C)O)n1ncn(-c2ccc(N3CCN(c4ccc(OC[C@@H]5CO[C@@](Cn6cncn6)(c6ccc(F)cc6F)C5)cc4)CC3)cc2)c1=O [Formula IV, reference compound] | unexpectedly better than that of existing antifungal agents | 0.2 µg/mL | 0.0156 to 8 µg/mL | 0.04 µg/mL | 0.015 to 0.5 µg/mL | 0.0156 to 1 µg/mL |  |  | 
CC[C@@H]([C@H](C)OC(=O)CCCCOP(=O)(O)O)n1ncn(-c2ccc(N3CCN(c4ccc(OC[C@@H]5CO[C@@](Cn6cncn6)(c6ccc(F)cc6F)C5)cc4)CC3)cc2)c1=O [Formula V.2 NMG, reference compound] |  |  |  |  |  |  | 36.7 |  | 
CC[C@@H]([C@H](C)OC(=O)CCCOP(=O)(O)O)n1ncn(-c2ccc(N3CCN(c4ccc(OC[C@@H]5CO[C@@](Cn6cncn6)(c6ccc(F)cc6F)C5)cc4)CC3)cc2)c1=O [Formula II, 5-[[2(S)-[4-[4-[4-[4-[[(R-cis)-5-(2,4-difluorophenyl)-tetrahydro-5-(1H-1,2,4-triazol-1-ylmethyl)-3-furanyl]methoxy]phenyl]-1-piperazinyl]phenyl]-4,5-dihydro-5-oxo-1H-1,2,4-triazol-1-yl]-1(S)-methylbutyl]oxy]-5-oxobutyl phosphate] |  | 7.5 µg/mL |  | 1.9 µg/mL | 0.125 to 32 µg/mL |  |  | primarily in the serum and in tissues (liver, lung and kidney) | in vitro antifungal activity, comparison of geometric mean MICs [2]: much lower; in vivo activity in two mice models (fungal infection; systemic Candida albicans and pulmonary Aspergillus fumigatus): good in vivo activity; metabolism [3]: metabolized to the compound of formula IV via the metabolite represented by formula III; survival (Aspergillus fumigatus): 70%; survival at day 9 (Candida albicans): 100%
CC[C@@H]([C@H](C)OC(=O)CCCO)n1ncn(-c2ccc(N3CCN(c4ccc(OC[C@@H]5CO[C@@](Cn6cncn6)(c6ccc(F)cc6F)C5)cc4)CC3)cc2)c1=O [Formula III, 2(S)-[4-{4-{4-{4-[[(R-Cis)-2-(2,4-difluorophenyl)-tetrahydro-2-(1H-1,2,4-triazol-1-ylmethyl)-4-furanyl]methoxy]phenyl]-1-piperazinyl]phenyl]-4,5-dihydro-5-oxo-1H-1,2,4-triazol-1-yl]-1-(S)-methylbutyl-4-hydroxy-butanoate] | unexpectedly better than that of existing antifungal agents | 0.3 µg/mL | 0.0156 to 8 µg/mL | 0.09 µg/mL | 0.0156 to 0.5 µg/mL | 0.0313 to 2 µg/mL |  | primarily in the serum | 
CC[C@@H]([C@H](C)OC(=O)CCCOP(=O)(O)O)n1ncn(-c2ccc(N3CCN(c4ccc(OC[C@@H]5CO[C@@](Cn6cncn6)(c6ccc(F)cc6F)C5)cc4)CC3)cc2)c1=O [Formula II.2 NMG] |  |  |  |  |  |  | 79.1 |  | water solubility (Water solubility): water soluble; blood levels of the compound of formula IV ([1]; mice, intravenous, in water): superior blood levels; pharmacokinetic parameters of formula IV versus those from di-NMG salt of formula V ([1]; mice, intravenous, side-by-side comparison): unexpectedly superior

— US6043245A, “Tetrahydrofuran antifungal phosphate” (Schering Corporation, priority 1998, dated 2000)
